Entries after “also recorded” stand apart in the source; their conditions may differ.
Key:
Salmonella = assay: Pathogenic testing for salmonella presence on treated poultry carcass samples after 7 day incubation; type: cell-based; conditions: for salmonella prevalence rate (samples tested positive): after 7 day incubation
Experimental: (§1) The following solutions were prepared. A cetylpyridinium chloride (CPC) solution was prepared by combining 1.0 g of cetylpyridinium chloride (CAS No. 123-03-05) in 100 mL of water to form a nominal 1.0 wt % CPC test solution. An epsilon-polylysine (EPL) solution was prepared by combining 4.3 g epsilon-polylysine (CAS No. 25104-18-1) in water to form 100 mL of aqueous solution to form a nominal 4.3 wt % EPL test solution. The combination test solution was prepared by combining 1.0 g of cetylpyridinium chloride and 4.3 g epsilon-polylysine in water to form 100 mL of aqueous solution to form a standard concentration combination solution, and 3.7 g of this standard concentration solution was diluted up to 100 mL to form a combination test solution, which is diluted roughly 27-fold from the from the standard concentration solution.
(§2) The following test method was used. Whole poultry carcasses were collected from the processing line following evisceration and rinse. The carcasses were then treated with the CPC, EPL, or combined CPC+EPL products and dilution rates as listed above, using a Lillard spray application for 5 seconds. Following 10 seconds of dwell time, a 25 gram sample of the product was collected and immediately tested to establish a control sample set-point, and 325 grams of the same carcass were incubated at 37° C. for 168 hours (7 days). Following the incubation cycle, a second 25 gram sample was collected from the 325 gram control for testing evaluation of yeast and mold growth. A second 25 gram composite sample was collected from the same 325 gram control for pathogenic testing for salmonella presence. All samples were tested using AOAC accredited methods in an AOAC accredited API examined laboratory. Confirmation (split) samples were processed at ABC Research Laboratory.

yeast and mold = assay: Yeast and mold growth (CFU) on whole poultry carcasses after spray treatment, day 1 versus day 7; type: cell-based; conditions: for log growth in yeast and mold over 7 days: day 7 minus day 1 log average
Experimental: as §1, §2

CCCCCCCCCCCCCCCC[n+]1ccccc1 [CPC, cetylpyridinium chloride]
salmonella prevalence rate (samples tested positive) (Salmonella; CPC (1.0%) only): 20%
log growth in yeast and mold over 7 days (yeast and mold; CPC (1.0%) only): 4.995 log
Log Avg, CPC Day 7 (yeast and mold; average of 10 samples, cetylpyridinium chloride (1.0%), after 7 days at 37° C.): 7.264
Log Avg, CPC Day 1 (yeast and mold; average of 10 samples, cetylpyridinium chloride (1.0%), day 1 set-point): 2.269

ε-poly-L-lysine [EPL]
seven-day samples tested positive for Salmonella (Salmonella; EPL (4.3%) only, 10 samples): 4 of 10
salmonella prevalence rate (samples tested positive) (Salmonella; EPL (4.3%) only): 40%
Salmonella, EPL Day 7 (Salmonella; ε-poly-L-lysine (4.3%), after 7 days at 37° C.): NEGATIVE; also recorded: POSITIVE
log growth in yeast and mold over 7 days (yeast and mold; EPL (4.3%) only): 3.677 log
Log Avg, EPL Day 7 (yeast and mold; average of 10 samples, ε-poly-L-lysine (4.3%), after 7 days at 37° C.): 6.97
Log Avg, EPL Day 1 (yeast and mold; average of 10 samples, ε-poly-L-lysine (4.3%), day 1 set-point): 3.293

— US8962662B2, “Antimicrobial compositions and methods of use thereof” (Byocoat Enterprises, Inc., priority 2011, dated 2015)
